#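 Interpolation was linear, between the two tested concentrations surrounding the appropriate level; five concentrations were tested over 48 hours in 96-well plates. The concentration for 50% growth inhibition is given as GI50. At the TGI there is no net growth.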
# Assays:
# Test in all cases: inhibition of tumour cell growth, NCI panel, 48 h
# [1] = test system: HS 578T breast
# [2] = test system: A549 NSCLC
# [3] = test system: MDA-MB-435
# [4] = test system: NCI-H460 lung
# [5] = test system: K-562 leukemia
# [6] = test system: SF-268 CNS
# [7] = test system: OVCAR-8 ovarian
# [8] = test system: SN12C renal
# [9] = test system: SF-539 CNS
# [10] = test system: SNB-19 CNS
# [11] = test system: MALME-3M melanoma
# [12] = test system: UO-31 renal
# [13] = test system: M14 melanoma
# [14] = test system: U251 CNS
# [15] = test system: ACHN renal
# [16] = test system: KM12 colon
# [17] = test system: BT-549 breast
# [18] = test system: MDA-MB-231 breast
# [19] = test system: DU-145 prostate
# [20] = test system: HCT-116 colon
# [21] = test system: OVCAR-5 ovarian
# [22] = test system: TK-10 renal
# [23] = test system: EKVX NSCLC
# [24] = test system: T-47D breast
# [25] = test system: HCC-2998 colon
# [26] = test system: RXF 393 renal
# [27] = test system: UACC-257 melanoma
# [28] = test system: HOP-62 NSCLC
# [29] = test system: HT29 colon
smiles,measurement,setting,value
O=C(Nc1n[nH]c2nc(-c3ccc(O)cc3)c(Br)cc12)C1CC1,GI50,[1],4.15 µM
same,TGI,[1],21.6 µM
same,GI50,[2],4.98 µM
same,TGI,[2],> 21.7 µM
same,GI50,[3],2.71 µM
same,TGI,[3],7.29 µM
same,GI50,[4],1.89 µM
same,TGI,[4],> 20.1 µM
same,GI50,[5],2.86 µM
same,TGI,[5],> 25 µM
same,GI50,[6],4.74 µM
same,TGI,[6],16.5 µM
same,GI50,[7],4.71 µM
same,TGI,[7],> 22.1 µM
same,GI50,[8],3.41 µM
same,TGI,[8],20.1 µM
same,GI50,[9],1.34 µM
same,TGI,[9],6.27 µM
same,GI50,[10],6.96 µM
same,TGI,[10],> 24.1 µM
same,GI50,[11],4.62 µM
same,TGI,[11],12.5 µM
same,GI50,[12],3.93 µM
same,TGI,[12],15.3 µM
same,GI50,[13],3.97 µM
same,TGI,[13],11.3 µM
same,GI50,[14],4.39 µM
same,TGI,[14],> 20.2 µM
same,GI50,[15],2.62 µM
same,TGI,[15],> 21.8 µM
same,GI50,[16],1.54 µM
same,TGI,[16],7.76 µM
same,GI50,[17],5.78 µM
same,TGI,[17],19.8 µM
same,GI50,[18],5.52 µM
same,TGI,[18],16.8 µM
same,GI50,[19],3.8 µM
same,TGI,[19],20.4 µM
same,GI50,[20],1.9 µM
same,TGI,[20],> 25 µM
same,GI50,[21],7.46 µM
same,TGI,[21],21.7 µM
same,GI50,[22],7.29 µM
same,TGI,[22],17.4 µM
same,GI50,[23],6.34 µM
same,TGI,[23],19 µM
same,GI50,[24],3.81 µM
same,TGI,[24],14.5 µM
same,GI50,[25],4.76 µM
same,TGI,[25],> 20.3 µM
same,GI50,[26],1.18 µM
same,TGI,[26],5.02 µM
same,GI50,[27],6.36 µM
same,TGI,[27],17 µM
same,GI50,[28],5.32 µM
same,TGI,[28],14 µM
same,GI50,[29],2.04 µM
same,TGI,[29],13.8 µM
